Data reported in patent publication US7094754B2, “Anti-aging and wound healing compounds” (Kimberly-Clark Worldwide, Inc., priority 2001, dated 2006).
Ends that are not written are not given here.

Assays:
Assay type in all cases: cell-based
[1] = system: neutrophils isolated from human blood; assay: Neutrophil migration assay (transwell); details: 10 nM, positive control; HSA 0.4%
Protocol: Peptides were synthesized and purified by the Microchemical Facility at Emory University or by SigmaGenesis. All peptides were analyzed by mass spectrometry after HPLC to assess purity. Approximately 0.5–2.0 milligrams of peptide were used to make fresh stock solutions (5 mg/mL in HBSS/HSA) for each migration assay. The peptide stock solutions were used to make more dilute solutions (1 mg/mL, 100 μg/mL, 10 μg/mL, 1 μg/mL, 100 ng/mL, and 10 ng/mL) in HBSS/HSA for the assays.
Neutrophils were isolated from human blood (collected in Vacutainerm tubes containing EDTA) by layering the blood/EDTA mixture (about 20 mL) on top of two layers of Histopaque™ 1119 (bottom layer, 18 mL) and 1077 (top layer, 7 mL) in 50 mL Falcon tubes. The tubes were centrifuged at 1800 rpm for 30 minutes (no brake). Four layers appeared in the tubes after the spin (from top to bottom layers): plasma, 1077, 1119, and red blood cells. The buffy coat between the plasma and 1077 layers contained lymphocytes, monocytes, and some platelets. The plasma layer, the buffy coat, and most of the 1077 layer was removed and discarded. The 1119 layer that contained the neutrophils was removed and was placed into a clean 50 mL tube. Dulbecco's Phosphate Buffered Saline (DPBS) was added to bring the volume to 50 mL. The cells were centrifuged for 15 minutes at 2100 rpm. The cells were resuspended in 10 mL of DPBS, transferred to 15 mL tubes, and centrifuged again for 10 minutes at 2000 rpm. This process was repeated to wash the cells a second time. After the supernatant was removed, the red blood cells were lysed by adding 6 mL of cold sterile water to each 15 mL of supernatant. Cells were mixed in the water for only 30 seconds. Six mL of cold 2% sterile saline was then added. Cells were centrifuged again for 10 minutes at 2000 rpm. The red supernatant (containing hemoglobin from red blood cells) was removed. This process of red blood cell lysis was repeated two more times to remove all of the red blood cells. After most of the red blood cells were removed, neutrophils were resuspended in 10 mL of HBSS/HSA for counting with trypan blue.
A neutrophil migration assay was performed in duplicate using a 24-well transwell plate (3 μm pore size for membrane). Transwell membranes were pre-moistened with 20–40 μL of HBSS/HSA (0.04–0.4%). Chemotactic solutions (500 μL) were added to the bottom of each well. […] Transwells were then placed into the chemotactic solutions. The plate was placed into the incubator (37° C., 5% CO2) for one hour. Cells that migrated through the membrane were counted using trypan blue.
In the neutrophil migration experiments, neutrophils that were isolated were approximately 95% viable. Neutrophils were resuspended in HBSS/0.4%HSA for this experiment. IL-8 (10 nM in the HBSS/0.4%HSA buffer) was used as a positive control for neutrophil migration.

[2] = system: normal human dermal fibroblasts (NHDF); assay: NHDF migration assay (48-well chemotaxis chamber); details: three hours
Protocol: Normal, human dermal fibroblasts (NHDF) were obtained from Biowhittaker, (Walkersville, Md.) and propagated in T75 flasks in FBM media (500 mL, Biowhittaker) containing insulin, hFGF-b, GA-1000, and fetal bovine serum (10 mL) for up to 12 passages. For the migration assay, NHDF were washed once with 10 mL of Hank's buffered saline solution (HBSS). Three milliliters of trypsin (0.25%) in EDTA were added to the T75 flask for no more than five minutes to remove NHDF from the flask. NHDF in trypsin solution were added to 7 mL of FBM with no supplements added. NHDF were centrifuged for 5 minutes, and the supernatant was removed. NHDF were resuspended in 10 mL of FBM for counting. NHDF were centrifuged for another 5 minutes, and the supernatant was removed. NHDF were resuspended at 1×10^6 cells per mL in FBM without supplements. It was important to use FBM media only in migration assays because the complete media contains fibroblast growth factor and serum, both of which will trigger migration of fibroblasts.
Peptides were synthesized and purified by the Microchemical Facility at Emory University or by SigmaGenesis. All peptides were analyzed by mass spectrometry after HPLC to assess purity. Approximately 0.5–2.0 milligrams of peptide were used to make fresh stock solutions (5 mg/mL in PBS) for each migration assay. The peptide stock solutions in PBS were used to make more dilute solutions (1 mg/mL, 100 μg/mL, 10 μg/mL, 1 μg/mL, 100 ng/mL, 10 ng/mL) in FBM (without supplements) for the migration assays.
Polyvinylpyrrolidone-free polycarbonate membranes with […] pores (Neuroprobe, Inc., Gaithersburg, Md.) were washed with 90% ethanol for 15 minutes and rinsed four times with deionized water. Membranes were then placed into a glass dish containing an aqueous solution of 5 μg/mL gelatin. The glass dish was placed in to a water bath at about 90° C. for one hour. Membranes were removed from the gelatin solution and were allowed to dry for one hour in the 37° C. incubator.
A 48-well chemotaxis chamber (Neuroprobe, Inc., Gaithersburg, Md.) (see FIG. 20) was used for the migration assays. Twenty-eight/μL of each test solution were added to the bottom wells of the chamber in quadruplicate. A gelatin-treated membrane was placed carefully on top of the bottom wells. The gasket and top part of chamber were then placed carefully on top of the membrane. The apparatus was tightened using six thumbscrews. A solution of NHDF containing an estimated cell density (2×10^5 cells per mL) was made by adding 320 μL of the 1×10^6 cells per mL solution to 1.28 mL of FBM (no supplements). Fifty microliters of the 2×10^5 cells per mL NHDF solution were added to the top part of each well in the chamber. The chamber was placed in the incubator at 37° C./5% CO2 for three hours. The chamber was removed, the thumbscrews were removed, and the chamber was turned upside down on a paper towel. […] The membrane was carefully removed. […] The membrane was fixed with methanol and stained using the Diff-Quik Staining Solutions I and II. The nuclei of NHDF are stained purple. The membrane was mounted on a glass slide using cedarwood immersion oil and a cover slip. […] The average number of migrated NHDF in the negative control was subtracted from the experimental (peptide) data and positive control data.

[3] = Viability assay (MTT) in EpiDerm skin model; details: human, EpiDerm skin model (MatTek), relative to PBS control, average over 500 μM and 2 mM, read-out: total average viability
Text: FIG. 16 provides a bar graph showing the percent living cells, relative to a positive control, in a skin model after treatment with two concentrations of peptide. The first sample, treated with phosphate buffered saline (PBS), is the positive control used to establish the cell count representing 100% viability. The second sample is a negative control where cells were exposed to 1% Triton-X100, showing that the assay can detect cell death. […] Data shown represent the average of three tests.
The sample containers were transferred to 6 well plates that contained fresh media. All peptides were dissolved in PBS at a final concentration of 10 mM, and 100 μL each peptide solution was pipetted onto the surface of the Epiderm sample container. Incubation was continued for 12 hours at 37° C., 5% CO2. After the incubation period, the sample containers were washed three times with PBS and the sample containers were transferred to a 24 well plate that contained 300 μL of MTT assay media per well (MTT concentration was 1 mg/mL). The colorimetric assay was allowed to develop for three hours (incubation at 37° C., 5% CO2). Sample containers were then transferred to a 24 well culture plate that contained 2 mL of isopropanol per well. Extraction of the colored precipitate occurred over a period of four hours at room temperature. Absorbance readings were taken at 570 nm and 650 nm for each sample. The percent viability of each sample relative to a PBS control was calculated as: 100×(OD570^sam−OD650^sam)/(OD570^con−OD650^con) (6) Routinely, the peptide sample was assayed in triplicate. Results The sequence of matrix metalloproteinase-2 (SEQ ID NO:14) is provided below to facilitate definition of the various domains and regions in matrix metalloproteinases.

Substance	Percent Neutrophil Migration exp.1 [1] [%]	percent of migrated NHDF compared to plasma fibronectin positive control ([2]; 100 μg/mL peptide) [%]	percent of migrated NHDF compared to plasma fibronectin positive control ([2]; 1000 μg/mL peptide) [%]	viability at 12 h [3] [%]
IL-8: positive control for neutrophil migration (10 nM in HBSS/HSA buffer) [reference compound]	81			
NYNFFPRKPK [10-mer]		11±0	30±2	89.6
PRCGNPDVA [9-mer]		16±0	32±2	95.8
